Like-named read-outs stand apart in the source and are kept apart here.
How the values were obtained:
[1] = system: B16-F10 (murine melanoma); assay: Alamar blue cytotoxicity assay, B16-F10; type: cell-based; conditions: Mus musculus, 72 h incubation
Procedure: The in vitro cytotoxic activity of the compounds (Table 1) was evaluated against cancer cell lines HCT116 (human colon carcinoma), HepG2 (human hepatocellular carcinoma), B16F10 (murine melanoma carcinoma) and non-cancerous cell line MRC-5 (human lung fibroblast) using the Alamar blue assay after 72 h of incubation; doxorubicin (DOX) was used as a positive control. The unsubstituted derivatives on the acridine cores were encoded as CL, and the disubstituted derivatives as DL.
The human cancer cell lines HCT116 (colon carcinoma) and HepG2 (hepatocellular carcinoma), the mouse cancer cell line B16-F10 (melanoma), and the non-cancerous human cell line MRC-5 (lung fibroblast) were obtained from the American Type Culture Collection (ATCC, Manassas, VA, USA) and cultured according to the ATCC animal cell culture guide. All cell lines tested negative for mycoplasma using a mycoplasma stain kit.
Cell viability was measured using the Alamar blue assay, as previously described. Cells were seeded in 96-well plates for all experiments. The compounds were dissolved in dimethyl sulfoxide (DMSO, Sigma-Aldrich) and added to each well in eight serial concentrations ranging from 0.19 to 25 μg/mL. As a positive control, doxorubicin was used. After 72 h of treatment, 20 μL of resazurin (0.312 mg/mL) was added to each well. A SpectraMax 190 Micro-plate Reader was used to measure absorbances at 570 and 595 nm (Molecular Devices, Sunnyvale, CA, USA). Nonlinear regression with 95% confidence intervals (CI 95%) was used to calculate the inhibitory concentration of 50% (IC50) using GraphPad Prism software (Intuitive Software for Science; San Diego, CA, USA).

[2] = system: CT DNA–EtBr; assay: Fluorescence competition with EtBr; type: binding, calf; conditions: for Ksv (10^3) (M^−1): [EtBr] = 20 μmol L^−1, [DNA] = 100 μmol L^−1; for Quenching (%): [EtBr] = 20 μmol L^−1, [DNA] = 100 μmol L^−1, [compound] = 0–100 μmol L^−1
Text: EtBr is a weak fluorophore in an aqueous solvent, which has its fluorescence enhanced when it binds to DNA by the intercalative mode. The study of fluorescence quenching with EtBr is commonly used to assess the ability of compounds to interact with DNA by interfering with the fluorescence of the EtBr–DNA interaction (ESI, Figures S58 and S59). The EtBr–DNA complex in the presence and absence of CL-07 is shown in Figure 6, and the comparison of the quenching extent between studied compounds in terms of F/F0 vs. [compound] is illustrated in Figure 7.
The fluorescence titration results were analyzed using the Stern–Volmer equation [101], and the Ksv values of CT DNA–EtBr in the presence of the compounds calculated the slope of the graphs. The fluorescence spectra of the EtBr or CT DNA–EtBr compounds were obtained by excitation at 526 nm and scanning the emission from 530 to 650 nm. Solutions containing CT DNA–EtBr (20 μM:100 μM) were analyzed in the presence of several derivative concentrations (10, 20, 40, 60, 80 and 100 μM) in Tris-HCl buffer (0.1 M, pH 7.4) (ESI, Figures S58 and S59):F0/F = 1 + Ksv[Q] F0 and F represent the steady-state fluorescence intensities of CT DNA–EtBr in the absence and presence of the compounds, respectively. [Q] refers to the concentration of derivatives as a quencher. Ksv indicates the Stern–Volmer quenching constant.

[3] = system: Swiss mice; assay: Acute toxicity study (14 days), OECD guideline 423; type: in vivo; conditions: for Organ mass Heart (g) / Organ mass Kidneys (g) / Organ mass Lungs (g) / Organ mass Speleen (g) / Organ mass Liver (g): after acute toxicity study; for Organ mass Heart (g) / Organ mass Kidneys (g) / Organ mass Lungs (g) / Organ mass Speleen (g) / Food (g/day) / Water (mL/day) / Weight gain (g) / Organ mass Liver (g): 2000 mg/kg oral; for Food (g/day) / Water (mL/day) / Weight gain (g): during acute toxicity study; for DA/TA (dead animals/total animals) / Mortality (%) / Signs of Toxicity: single oral dose 2000 mg/kg, female mice, 14 days
Procedure: Based on the low selectivity found in the in vitro cytotoxicity, we decided to perform a preclinical in vivo toxicological analysis on mice to understand the pharmacological profiles of the derivatives described herein. After oral administration of acridine–thiosemicarbazone derivatives to female mice, possible adverse clinical signs and mortality in the groups of animals submitted to the acute toxicity study were recorded (Table 6), as well as absolute body mass, food and water consumption, and the average masses of the organs of the animals treated with the compounds and the control group.
An acute toxicity study was conducted according to Organization for Economic Co-operation and Development (OECD) guideline 423 (OECD 2001) with modifications (National Health Surveillance Agency Brazil, 2013). In principle, the method is not intended to allow an accurate calculation of the lethal dose (LD50), despite providing an estimate of its value; however, it allows a classification of the substance into categories according to the Globally Harmonized Classification System (GHS). The tests were carried out with the consent of the ethics council of the State University of Paraiba (process no. 008/2021, approved 9 November 2021). Swiss mice, three females per group, were subjected to single oral doses of 2000 mg/kg of acridine–thiosemicarbazone derivatives, and to the control group, we administered only the vehicle (12% Tween 80 solution in saline).
After the end of treatment with acridine–thiosemicarbazone derivatives, the animals were anesthetized with a xylazine–ketamine solution of 0.2 mL/100 g (8.75 mL ketamine (100 mg/mL) and 1.25 mL xylazine (10 mg/mL)) as per Cornell University/Cornell Center for Animal Resources and Education protocol described by Flecknell (1996). After euthanasia, a macroscopic assessment of the external body surface, cavities (thoracic, abdominal and cranial) and organs (change in position, shape, size, color and consistency) was carried out. The absolute and relative weights of the brain, lungs, liver, heart, spleen and kidneys were also determined. Relative weight was calculated using the formula: relative organ weight (%) = (weight of organ/weight of mouse) × 100 [88, 89].

[4] = system: K-562 cells; assay: MTT cytotoxicity assay on leukemic cells, K562; type: cell-based; conditions: Homo sapiens
Procedure: K562 (human erythroleukemic) and its multidrug-resistant counterpart, K562-Lucena 1, were obtained from the Tumor Immunology Laboratory (Federal University of Rio de Janeiro) (Rumjanek et al., 2001) and were cultured as recommended by Daflon-Yunes et al., 2013 [93, 106, 107].
CL-07, DL-01 and DL-08 compounds were evaluated for cell viability on K562 and K562-Lucena 1 cells using the colorimetric tetrazolium method (Mosmann, 1983). Cells were plated in 96-well plates. Compounds were dissolved in 1% (v/v) DMSO and RPMI-1640 medium (Sigma-Aldrich) in five serial concentrations from 1 to 50 µg/mL and were later added to each well and incubated for 72 h at 37 °C in a 5% CO2 humidified environment. As a positive control, 1 µM staurosporine was used. Then, the cells were treated with 20 µL of 5 mg/mL 3-(4,5-dimethylthiazol-2yl)-2,5-diphenyltetrazolium bromide solution (MTT solution in phosphate buffer solution) for 3 h. At the end of treatment, absorbances at 562 nm were measured using an iMark™ Microplate Absorbance Reader (iMark™, Hercules, CA, USA). Half-inhibitory concentration (IC50) was obtained by nonlinear regression with 95% confidence intervals (CI 95%) using GraphPad Prism software (Intuitive Software for Science; San Diego, CA, USA).

[5] = MTT, 72 h, read-out: IC50 K-562
[6] = range over both cell lines and both compounds, read-out: IC50 on leukemic cells (K-562 and K-562 Lucena 1)

| Compound | IC50 [1] | Ksv (10^3) (M^−1) ([2]; Stern–Volmer constant) | Ksv ([2]; Stern–Volmer constant, abstract value) | Quenching (%) [2] | Organ mass Heart (g) [3] | Organ mass Kidneys (g) [3] | Organ mass Lungs (g) [3] | Organ mass Speleen (g) [3] | Food (g/day) [3] | Water (mL/day) [3] | Weight gain (g) [3] | DA/TA (dead animals/total animals) [3] | Mortality (%) [3] | Signs of Toxicity [3] | IC50 [4, 5] | Organ mass Liver (g) [3] | IC50 [4, 6] |
| --- | --- | --- | --- | --- | --- | --- | --- | --- | --- | --- | --- | --- | --- | --- | --- | --- | --- |
| Oc1ccc(/C=N/NC(=S)Nc2c3ccccc3nc3ccccc23)cc1 [CL-07, (E)-N-(acridin-9-yl)-2-(4-hydroxybenzylidene)hydrazine-1-carbothioamide] | 19.8 µM | 2.6 10^3 M^−1 | 2600 M⁻¹ | 21.71% | 0,417±0,038 g | 1,308±0,099 g | 0,619±0,089 g | 0,574±0,061 g | 14,57±1,78 g/day | 23,57±1,34 mL/day | 1,33±0,27 g | 0/3 | 0% | None | 45.5 µM | – | – |
| COc1ccc2nc3cc(Cl)ccc3c(NC(=S)N/N=C/c3ccccc3)c2c1 [DL-01, (E)-2-benzylidene-N-(6-chloro-2-methoxyacridin-9-yl)hydrazine-1-carbothioamide] | 39.6 µM | 1.8 10^3 M^−1 | – | 15.61% | 0,410±0,039 g | 1,338±0,091 g | 0,640±0,057 g | 0,551±0,037 g | 12,35±1,39 g/day | 23,71±1,26 mL/day | 0,69±0,58 g | 0/3 | 0% | Reduced feed consumption | 11.5 µM | 5,257±0,610 g | 11.5 to 17.3 µM |
| COc1ccc2nc3cc(Cl)ccc3c(NC(=S)N/N=C/c3cccc(O)c3)c2c1 [DL-08, (E)-N-(6-chloro-2-methoxyacridin-9-yl)-2-(3-hydroxybenzylidene)hydrazine-1-carbothioamide] | 14.8 µM | 2.5 10^3 M^−1 | – | 20.83% | 0,427±0,035 g | 1,355±0,062 g | 0,646±0,032 g | 0,412±0,033 g | 15,21±0,97 g/day | 25,28±0,46 mL/day | 0,76±0,43 g | 0/3 | 0% | Hepatic steatosis | 17.3 µM | 5,619±0,259 g | 11.5 to 17.3 µM |

From PMC9506480, “Synthesis and Evaluation of Antiproliferative Activity, Topoisomerase IIα Inhibition, DNA Binding and Non-Clinical Toxicity of New Acridine–Thiosemicarbazone Derivatives” (Pharmaceuticals, 2022)
